Assay results published in US9533985B2, “Sulfonamide derivative and medicinal use thereof” (EA Pharma Co., Ltd., priority 2012, dated 2017).

Assays:
Type in all cases: cell-based
α4β7 integrin [1] = biological target: T1, α4β7 integrin (Homo sapiens (Human), UniProt P13612+P26010); test: MAdCAM-1/α4β7 integrin binding inhibitory activity evaluation test in the presence of serum (1); details: RPMI-8866 cells binding to mouse MAdCAM-1/Fc, human serum at final concentration of 50%; read-out: α4β7 with serum added, IC50
T1 sequence (P13612 34-1032): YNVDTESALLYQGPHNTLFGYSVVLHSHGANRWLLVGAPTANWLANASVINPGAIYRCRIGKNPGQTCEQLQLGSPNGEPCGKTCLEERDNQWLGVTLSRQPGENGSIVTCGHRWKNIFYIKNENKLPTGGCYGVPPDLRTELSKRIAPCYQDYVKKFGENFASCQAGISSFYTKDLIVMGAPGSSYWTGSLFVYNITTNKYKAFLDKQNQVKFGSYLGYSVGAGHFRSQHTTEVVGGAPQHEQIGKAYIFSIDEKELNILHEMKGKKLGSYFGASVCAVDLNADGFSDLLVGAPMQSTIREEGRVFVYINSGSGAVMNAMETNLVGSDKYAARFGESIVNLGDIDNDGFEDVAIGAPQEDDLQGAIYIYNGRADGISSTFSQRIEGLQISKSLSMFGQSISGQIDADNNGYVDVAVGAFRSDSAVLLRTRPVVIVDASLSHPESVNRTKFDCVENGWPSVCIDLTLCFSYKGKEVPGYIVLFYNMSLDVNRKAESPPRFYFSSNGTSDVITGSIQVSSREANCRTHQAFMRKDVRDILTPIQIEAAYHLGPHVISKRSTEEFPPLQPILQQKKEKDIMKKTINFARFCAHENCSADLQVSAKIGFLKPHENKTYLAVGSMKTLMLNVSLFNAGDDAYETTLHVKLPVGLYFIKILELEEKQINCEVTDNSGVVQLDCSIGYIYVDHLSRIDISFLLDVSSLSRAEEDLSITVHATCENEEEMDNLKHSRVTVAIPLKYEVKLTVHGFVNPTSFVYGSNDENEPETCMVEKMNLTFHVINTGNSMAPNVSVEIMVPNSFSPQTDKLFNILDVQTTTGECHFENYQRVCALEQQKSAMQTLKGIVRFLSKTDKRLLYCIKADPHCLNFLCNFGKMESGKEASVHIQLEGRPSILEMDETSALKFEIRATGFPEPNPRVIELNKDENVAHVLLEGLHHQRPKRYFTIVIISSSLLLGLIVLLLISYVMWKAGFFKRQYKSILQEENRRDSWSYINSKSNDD
T1 sequence (P26010 20-798): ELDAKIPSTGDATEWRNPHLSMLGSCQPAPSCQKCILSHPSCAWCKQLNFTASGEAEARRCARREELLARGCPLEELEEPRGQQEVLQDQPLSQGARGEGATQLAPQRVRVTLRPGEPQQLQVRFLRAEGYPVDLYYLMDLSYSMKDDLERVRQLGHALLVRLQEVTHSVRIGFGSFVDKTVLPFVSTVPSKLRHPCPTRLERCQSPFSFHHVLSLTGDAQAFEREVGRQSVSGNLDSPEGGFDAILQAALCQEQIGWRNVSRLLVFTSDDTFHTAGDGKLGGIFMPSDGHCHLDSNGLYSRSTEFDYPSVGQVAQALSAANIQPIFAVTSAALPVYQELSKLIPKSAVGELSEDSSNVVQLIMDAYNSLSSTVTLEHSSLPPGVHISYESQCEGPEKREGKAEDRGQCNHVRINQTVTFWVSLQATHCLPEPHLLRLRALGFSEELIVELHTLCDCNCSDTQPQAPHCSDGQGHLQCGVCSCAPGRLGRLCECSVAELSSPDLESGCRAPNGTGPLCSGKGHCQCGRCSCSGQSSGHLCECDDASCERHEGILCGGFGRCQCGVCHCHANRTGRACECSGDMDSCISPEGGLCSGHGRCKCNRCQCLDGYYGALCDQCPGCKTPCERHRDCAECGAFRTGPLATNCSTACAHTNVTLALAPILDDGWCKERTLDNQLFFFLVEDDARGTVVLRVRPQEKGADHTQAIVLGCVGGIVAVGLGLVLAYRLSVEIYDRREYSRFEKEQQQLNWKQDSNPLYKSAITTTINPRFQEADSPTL
Procedure: (§1) The ability of test substances to inhibit the binding of a human B cell line, RPMI-8866, which is known to express α4β7 integrin, to MAdCAM-1 was measured. To 96-well microtiter plates, recombinant mouse MAdCAM-1/Fc (R&D systems) solution (1 μg/mL) diluted with buffer A (carbonate buffer, pH 9.6) was added at 50 μL/well, followed by incubation at 4° C. overnight. After washing once with PBS, Block Ace (Snow Brand Milk Products Company, Limited) was added at 150 μL/well, followed by incubation at room temperature for 2 hours. After removal, washing was conducted once with PBS. 100 μL of each test substance diluted with a binding buffer (DMEM containing 40 mM HEPES, 0.2% BSA, and 4 mM MnCl2) to various concentrations and 100 μL of RPMI-8866 cells (2×10^6 cell/mL) were added to plates coated with MAdCAM-1/Fc (5×10^5 cells/well) with human serum being contained at a final concentration of 50%, followed by incubation at 30° C. for 15 minutes to 60 minutes. After the cells were bound to each well, unbound cells were removed by washing with PBS. To the plates, buffer C (PBS containing 1.5% Triton X-100) was added at 50 μL/well to lyse the bound RPMI-8866 cells. To 30 μL of the cell lysate, 30 μL of Substrate Buffer (Promega, CytoTox 96 Non-Radioactive Cytotoxicity Assay) was added, and the reaction was allowed to proceed at room temperature in a dark place for 30 minutes. To each well, 30 μL of Stop Solution (Promega, CytoTox 96 Non-Radioactive Cytotoxicity Assay) was added, and the absorbance at 490 nm was measured by using a plate reader. Here, by the obtained absorbance, the activity of the lactate dehydrogenase (LDH) dissolved into the supernatant of each well was detected. In other words, the absorbance was proportional to the number of the RPMI-8866 cells bound to MAdCAM-1 and remaining on the plate. The test was duplicated. The binding ratios of the cells at various concentrations were determined, with the absorbance of a well containing no test substance taken as 100%. Then, the concentration IC50, at which 50% binding inhibition was achieved, was calculated.

α4β1 integrin = α4β1 integrin (Homo sapiens (Human), UniProt P05556+P13612); test: VCAM-1/α4β1 integrin binding inhibitory activity evaluation test (Jurkat cell adhesion to VCAM-1/Fc); details: Jurkat cells binding to recombinant human VCAM-1/Fc
α4β1 integrin, sequence (P13612 34-1032): as the sequence (P13612 34-1032) above
α4β1 integrin, sequence (P05556 21-798): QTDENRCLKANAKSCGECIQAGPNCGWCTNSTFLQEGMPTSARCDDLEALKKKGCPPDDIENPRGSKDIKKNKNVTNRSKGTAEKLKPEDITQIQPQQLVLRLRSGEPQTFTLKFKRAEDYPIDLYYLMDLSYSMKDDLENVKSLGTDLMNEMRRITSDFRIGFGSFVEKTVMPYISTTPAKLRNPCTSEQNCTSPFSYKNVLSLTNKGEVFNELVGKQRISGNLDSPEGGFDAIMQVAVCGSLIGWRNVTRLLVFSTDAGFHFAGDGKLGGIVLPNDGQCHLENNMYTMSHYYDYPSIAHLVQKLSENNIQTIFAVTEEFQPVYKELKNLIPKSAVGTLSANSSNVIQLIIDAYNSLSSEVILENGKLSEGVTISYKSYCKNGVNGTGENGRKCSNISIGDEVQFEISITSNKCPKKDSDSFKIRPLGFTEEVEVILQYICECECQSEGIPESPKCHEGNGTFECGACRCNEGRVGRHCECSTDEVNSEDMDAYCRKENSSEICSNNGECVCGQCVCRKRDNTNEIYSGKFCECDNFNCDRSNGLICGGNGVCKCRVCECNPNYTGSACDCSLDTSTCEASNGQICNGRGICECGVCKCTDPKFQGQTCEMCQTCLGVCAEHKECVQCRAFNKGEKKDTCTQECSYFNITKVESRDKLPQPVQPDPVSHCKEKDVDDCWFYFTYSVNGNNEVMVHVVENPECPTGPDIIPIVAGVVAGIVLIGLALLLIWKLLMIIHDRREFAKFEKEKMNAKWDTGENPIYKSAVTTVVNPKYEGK
Procedure: The ability of test substances to inhibit the binding of a human T-cell line, Jurkat, which is known to express α4β1 integrin, to VCAM-1 was measured. To 96-well microtiter plates, recombinant human VCAM-1/Fc (R&D systems) solution (1 μg/mL) diluted with buffer A (carbonate buffer, pH 9.6) was added at 50 μL/well, followed by incubation at 4° C. overnight. After washing once with PBS, Block Ace (Snow Brand Milk Products Company, Limited) was added at 150 μL/well, followed by incubation at room temperature for 2 hours. After removal, washing was conducted once with PBS. 100 μL of each test substance diluted with a binding buffer (DMEM containing 40 mM HEPES, 0.2% BSA, and 4 mM MnCl2) to various concentrations and 100 μL of the Jurkat cells (2×10^6 cell/mL) were added to the plates coated with VCAM-1/Fc (5×10^5 cells/well), followed by incubation at 30° C. for 15 minutes to 60 minutes. After the cells were bound to each well, unbound cells were removed by washing with PBS. To the plates, buffer C (PBS containing 1.5% Triton X-100) was added at 50 μL/well to lyse the bound Jurkat cells. To 30 μL of the cell lysate, 30 μL of Substrate Buffer (Promega, CytoTox 96 Non-Radioactive Cytotoxicity Assay) was added, and the reaction was allowed to proceed at room temperature in a dark place for 30 minutes. To each well, 30 μL of Stop Solution (Promega, CytoTox 96 Non-Radioactive Cytotoxicity Assay) was added, and the absorbance at 490 nm was measured by using a plate reader. Here, by the obtained absorbance, the activity of the lactate dehydrogenase (LDH) dissolved into the supernatant of each well was detected. In other words, the absorbance was proportional to the number of the Jurkat cells bound to VCAM-1 and remaining on the plate. The test was duplicated. The binding ratios of the cells at various concentrations were determined, with the absorbance of a well containing no test substances taken as 100%. Then, the concentration IC50, at which 50% binding inhibition was achieved, was calculated. […] Note that, among the compounds synthesized in the corresponding Examples, the compounds in the free form (Compounds A-1 to A-39) were used as the test compounds. Hereinafter, the same shall apply.

α4β7 integrin [2] = biological target: T1, α4β7 integrin; test: MAdCAM-1/α4β7 integrin binding inhibitory activity evaluation test (RPMI-8866 cell adhesion to MAdCAM-1/Fc); details: for Selectivity: IC50 in VCAM-1/α4β1 test divided by IC50 in MAdCAM-1/α4β7 test; for IC50: RPMI-8866 cells binding to recombinant mouse MAdCAM-1/Fc, no serum
Procedure: as §1, with “systems) solution (0.75 μg/mL) diluted” for “systems) solution (1 μg/mL) diluted”, “A (carbonate buffer solution, pH 9.6)” for “A (carbonate buffer, pH 9.6)”, “diluted with binding buffer” for “diluted with a binding buffer”, “added to the plates coated” for “added to plates coated”, “MAdCAM-1/Fc (5×10^5 cells/well), followed by” for “MAdCAM-1/Fc (5×10^5 cells/well) with human serum being contained at a final concentration of 50%, followed by”, “was calculated. […] Note that the selectivity in the table was determined by dividing the IC50 value in VCAM-1/α4β1 Integrin Binding Inhibitory Activity Evaluation Test by the IC50 value in the MAdCAM-1/α4β7 integrin binding inhibitory activity evaluation test.” for “was calculated.”

Row | SMILES | IC50 (α4β7 integrin [1]) | IC50 (α4β1 integrin) | Selectivity (α4β7 integrin [2]) | IC50 (α4β7 integrin [2])
1 | Cc1cc(-c2ccc(S(=O)(=O)Nc3cc(F)c(C(=O)N[C@@H](Cc4ccc(-n5c(=O)c6ccncc6n(C)c5=O)cc4)C(=O)O)c(F)c3)cc2)ccn1 [Example 49, N-[2,6-Difluoro-4-({[4-(2-methylpyridin-4-yl)phenyl]sulfonyl}amino)benzoyl]-4-(1-methyl-2,4-dioxo-1,4-dihydropyrido[3,4-d]pyrimidin-3(2H)-yl)-L-phenylalanine] | 25 nM | 330 nM | 770 | 0.43 nM
2 | Cn1c(=O)n(-c2ccc(C[C@H](NC(=O)c3c(F)cc(NS(=O)(=O)c4ccc(-c5ccsc5)cc4)cc3F)C(=O)O)cc2)c(=O)c2ccncc21 [Example 53, N-[2,6-Difluoro-4-({[4-(3-thienyl)phenyl]sulfonyl}amino)benzoyl]-4-(1-methyl-2,4-dioxo-1,4-dihydropyrido[3,4-d]pyrimidin-3(2H)-yl)-L-phenylalanine] | 24 nM | 740 nM | 260 | 2.8 nM
3 | Cn1c(=O)n(-c2ccc(C[C@H](NC(=O)c3c(F)cc(NS(=O)(=O)c4ccc(-c5cncnc5)cn4)cc3F)C(=O)O)cc2)c(=O)c2ccncc21 [Example 54, N-(2,6-Difluoro-4-{[(5-pyrimidin-5-yl-pyridin-2-yl)sulfonyl]amino}benzoyl)-4-(1-methyl-2,4-dioxo-1,4-dihydropyrido[3,4-d]pyrimidin-3(2H)-yl)-L-phenylalanine] | 1.6 nM | 18 nM | 230 | 0.077 nM
4 | Cn1c(=O)n(-c2ccc(C[C@H](NC(=O)c3c(F)cc(NS(=O)(=O)c4ccc(-n5cncn5)nc4)cc3F)C(=O)O)cc2)c(=O)c2ccncc21 [Example 55, N-[2,6-Difluoro-4-({[6-(1H-1,2,4-triazol-1-yl)pyridin-3-yl]sulfonyl}amino)benzoyl]-4-(1-methyl-2,4-dioxo-1,4-dihydropyrido[3,4-d]pyrimidin-3(2H)-yl)-L-phenylalanine] | 4.6 nM | 45 nM | 170 | 0.27 nM
5 | Cn1c(=O)n(-c2ccc(C[C@H](NC(=O)c3c(F)cc(NS(=O)(=O)c4ccc(-n5cncn5)cn4)cc3F)C(=O)O)cc2)c(=O)c2ccncc21 [Example 57, N-[2,6-Difluoro-4-({[5-(1H-1,2,4-triazol-1-yl)pyridin-2-yl]sulfonyl}amino)benzoyl]-4-(1-methyl-2,4-dioxo-1,4-dihydropyrido[3,4-d]pyrimidin-3(2H)-yl)-L-phenylalanine] | 1.5 nM | 13 nM | 220 | 0.06 nM
6 | Cn1ccc(=O)n(-c2ccc(C[C@H](NC(=O)c3c(F)cc(NS(=O)(=O)c4ccc(-n5ccnn5)cc4)cc3F)C(=O)O)cc2)c1=O [Example 58, N-[2,6-Difluoro-4-({[4-(1H-1,2,3-triazol-1-yl)phenyl]sulfonyl}amino)benzoyl]-4-(3-methyl-2,6-dioxo-3,6-dihydropyrimidin-1(2H)-yl)-L-phenylalanine] | 4.8 nM | 410 nM | 410 | 1 nM

Continued, values first:

Row | IC50 (α4β7 integrin [1]) | IC50 (α4β1 integrin) | Selectivity (α4β7 integrin [2]) | IC50 (α4β7 integrin [2]) | SMILES
7 | 19 nM | 180 nM | 560 | 0.32 nM | Cc1ccc(-c2ccc(S(=O)(=O)Nc3cc(F)c(C(=O)N[C@@H](Cc4ccc(-n5c(=O)c6ccncc6n(C)c5=O)cc4)C(=O)O)c(F)c3)cc2)cn1 [Example 50, N-[2,6-Difluoro-4-({[4-(6-methylpyridin-3-yl)phenyl]sulfonyl}amino)benzoyl]-4-(1-methyl-2,4-dioxo-1,4-dihydropyrido[3,4-d]pyrimidin-3(2H)-yl)-L-phenylalanine]
8 | 21 nM | 1500 nM | 220 | 6.9 nM | COc1ccc2c(c1)c(=O)n(-c1ccc(C[C@H](NC(=O)c3c(F)cc(NS(=O)(=O)c4ccc(-n5ccnn5)cc4)cc3F)C(=O)O)cc1)c(=O)n2C [Example 51, N-[2,6-Difluoro-4-({[4-(1H-1,2,3-triazol-1-yl)phenyl]sulfonyl}amino)benzoyl]-4-(6-methoxy-1-methyl-2,4-dioxo-1,4-dihydroquinazolin-3(2H)-yl)-L-phenylalanine]
9 | 13 nM | 550 nM | 210 | 2.6 nM | CNCc1ccc(S(=O)(=O)Nc2ccc(C(=O)N[C@@H](Cc3ccc(-n4c(=O)c5ccncc5n(C)c4=O)cc3)C(=O)O)c(F)c2)cc1 [Example 52, N-{2-Fluoro-4-[({4-[(methylamino)methyl]phenyl}sulfonyl)amino]benzoyl}-4-(1-methyl-2,4-dioxo-1,4-dihydropyrido[3,4-d]pyrimidin-3(2H)-yl)-L-phenylalanine]
10 | 5.4 nM | 160 nM | 80 | 2 nM | Cn1ccc(=O)n(-c2ccc(C[C@H](NC(=O)c3c(F)cc(NS(=O)(=O)c4ccc(-n5cncn5)cn4)cc3F)C(=O)O)cc2)c1=O [Example 56, N-[2,6-Difluoro-4-({[5-(1H-1,2,4-triazol-1-yl)pyridin-2-yl]sulfonyl}amino)benzoyl]-4-(3-methyl-2,6-dioxo-3,6-dihydropyrimidin-1(2H)-yl)-L-phenylalanine]
